Legend:
[1] = Salt screening of compound I with several acids (aspect of the salt); format: physicochemical; conditions: free base and acid in hot ethanol, cooled, solvent evaporated
Procedure: To select the most suitable salt of compound I and minimize the undesirable hygroscopic properties of the hydrochloride, several acids were tested. The free base of compound I was dissolved in hot ethanol, and then acid solution in hot ethanol was added. The mixture was then stirred and heated for 30 min. After cooling to room temperature, the solvent was removed by evaporation. […]

[2] = Physicochemical stability and hygroscopicity of the salts on storage; conditions: for physicochemical stability (in words): storage or formulation, room and enhanced temperature, high humidity, aqueous media
From the text: Compound I is also disclosed in WO2004000840. On the other hand, compound I is exemplified as hydrochloride salt in WO2003053966 as an intermediate in the synthesis of other compounds. […] Upon storage or formulation of said known salt, progressive decomposition and concomitantly an increase in the amount and number of impurities was observed. Obviously, this problem is further aggravated under demanding environmental conditions such as light, heat, humidity or acidity.
It has been particularly difficult to find stable, crystalline forms of (R)-3-fluorophenyl-3,4,5-trifluorobenzylcarbamic acid 1-azabicyclo[2.2.2]oct-3-yl ester. […] Thus, there remains a need for a salt of (R)-3-fluorophenyl-3,4,5-trifluorobenzylcarbamic acid 1-azabicyclo[2.2.2]oct-3-yl ester that forms a crystalline solid that has a desirable morphology, be stable in the presence of water and under conditions of a high relative humidity (above 85%) and can readily be prepared on a large scale.

## O=C(O)C(O)C(O)C(=O)O.O=C(O[C@H]1CN2CCC1CC2)N(Cc1cc(F)c(F)c(F)c1)c1cccc(F)c1 [D-tartrate salt, D-tartrate salt of (R)-3-fluorophenyl-3,4,5-trifluorobenzylcarbamic acid 1-azabicyclo[2.2.2]oct-3-yl ester]
[1]; listed as D-Tartaric
  Aspect of the salt: White solid crystal precipitated in EtOH.
[1]; listed as salt obtained with D-tartaric acid
  Aspect of the salt: non-hygroscopic solid crystal
[2]
  hygroscopicity (in words): relatively non-hygroscopic
  physicochemical stability (in words): more stable than the hydrochloride salt
[2]; listed as Form I
  physicochemical stability (in words): stable at room temperature

From patent US8871787B2, “Stable crystalline salt of (R)-3-fluorophenyl-3,4,5-trifluorobenzylcarbamic acid 1-azabicyclo [2.2.2]oct-3-yl ester” (Laboratorios Salvat, S.A., priority 2007, dated 2014)
